In assay [1] the target is T1, Heat shock protein 75 kDa, mitochondrial (Homo sapiens) (UniProt Q12931).
T1 sequence (whole entry): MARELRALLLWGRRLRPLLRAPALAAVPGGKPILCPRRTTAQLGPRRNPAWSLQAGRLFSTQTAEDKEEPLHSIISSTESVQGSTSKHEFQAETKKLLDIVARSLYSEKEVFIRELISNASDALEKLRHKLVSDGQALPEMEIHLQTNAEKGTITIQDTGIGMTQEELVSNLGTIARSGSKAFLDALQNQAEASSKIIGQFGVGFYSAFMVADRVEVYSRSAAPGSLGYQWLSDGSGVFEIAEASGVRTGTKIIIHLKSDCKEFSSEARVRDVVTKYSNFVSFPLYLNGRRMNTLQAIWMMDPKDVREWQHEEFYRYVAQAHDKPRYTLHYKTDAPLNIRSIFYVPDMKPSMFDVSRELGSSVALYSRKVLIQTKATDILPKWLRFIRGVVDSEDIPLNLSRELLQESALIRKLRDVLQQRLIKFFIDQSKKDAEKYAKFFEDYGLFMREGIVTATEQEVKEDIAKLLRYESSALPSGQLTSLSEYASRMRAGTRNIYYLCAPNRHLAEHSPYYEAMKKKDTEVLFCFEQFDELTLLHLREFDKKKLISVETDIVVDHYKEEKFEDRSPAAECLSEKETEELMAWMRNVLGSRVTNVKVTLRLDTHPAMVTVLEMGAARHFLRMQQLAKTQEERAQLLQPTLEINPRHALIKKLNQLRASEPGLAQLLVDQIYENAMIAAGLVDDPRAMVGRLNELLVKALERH
As to the kind of experiment: Inhibition of recombinant wild-type human TRAP1 ATPase activity expressed in Escherichia coli BL21 (DE3) preincubated for 0.5 hrs followed by ATP addition and measured after 3 hrs by PiColorLock Gold reagent based colorimetric assay.

Assay [2] has as its target T1, Heat shock protein 75 kDa, mitochondrial (Homo sapiens). In words: Inhibition of recombinant wild-type human TRAP1 chaperone activity expressed in Escherichia coli BL21 (DE3) at 5 uM preincubated for 30 mins followed by denatured luciferase and ATP addition by luciferase refolding assay.
The species entered for assay [3] is Homo sapiens. In words: Inhibition of recombinant full-length human TRAP1 W383/W4F mutant expressed in Escherichia coli BL21 (DE3) assessed as intrinsic fluorescence quenching of tryptophan residues at 10 uM measured after 1 hr by fluorescence spectrophotometric method.
For assay [4], the species on record is Homo sapiens. In words: Inhibition of recombinant full-length human TRAP1 W585/W4F mutant expressed in Escherichia coli BL21 (DE3) assessed as intrinsic fluorescence quenching of tryptophan residues at 10 uM measured after 1 hr by fluorescence spectrophotometric method.
Assay [5] deals with T1, Heat shock protein 75 kDa, mitochondrial (Homo sapiens). In words: Binding affinity to recombinant wild-type human TRAP1 ATP site expressed in Escherichia coli BL21 (DE3) assessed as induction of conformational change by measuring closed state population of TRAP1 at 10 uM preincubated for 30 mins followed by ATP addition and measured after 30 mins by TEM analysis (reference value: 52.1 +/- 0.6 %).

For assay [6] the target is unchanged. In words: Binding affinity to recombinant wild-type human TRAP1 ATP site expressed in Escherichia coli BL21 (DE3) assessed as induction of conformational change by measuring closed state population of TRAP1 at 10 uM measured after 30 mins in absence of ATP by TEM analysis (reference value: 52.1 +/- 0.6 %).
For assay [7] the target is unchanged. In words: Inhibition of TRAP1 in human PC3 cells assessed as increase in reactive oxygen species generation at 10 uM measured after 2 hrs by Mito-SOX probe based flow cytometry. It counts as cell-based. To be noted: PC-3.
The target is the same in assay [8]. As to the kind of experiment: Inhibition of TRAP1 in human PC3 cells assessed as loss of mitochondrial membrane potential at 10 uM measured after 2 hrs by TMRM dye based flow cytometry. It counts as cell-based. Particulars: PC-3.
Assay [9] has the same target. In words: Inhibition of TRAP1 in human PC3 cells assessed as increase in AMPK phosphorylation at 5 uM measured after 2 to 12 hrs by Western blot analysis. Particulars: PC-3. It counts as cell-based.
The target is the same in assay [10]. As to the kind of experiment: Inhibition of TRAP1 in human PC3 cells assessed as reduction in SIRT3 expression at 5 uM measured after 2 to 12 hrs by Western blot analysis. It counts as cell-based. Particulars: PC-3. (In general: In western blotting, separated proteins are transferred to a membrane and probed.)
Assay [11] has the same target. In words: Inhibition of TRAP1 in human PC3 cells assessed as reduction in SDHB expression at 5 uM measured after 2 to 12 hrs by Western blot analysis. It counts as cell-based. Particulars: PC-3.
For assay [12] the target is unchanged. As to the kind of experiment: Inhibition of TRAP1 in human PC3 cells assessed as increase in CHOP expression at 5 uM measured after 2 to 12 hrs by Western blot analysis. Type of assay: cell-based. To be noted: PC-3.
The test system of assay [13] is PC-3. In words: Cytotoxicity against human PC3 cells assessed as reduction in cell viability up to 3 uM measured after 24 hrs by MTT assay. Type of assay: functional, cell-based. (Tetrazolium assays rely on reduction of a dye to a coloured formazan, in cell work by metabolically active cells.)
Assay [14] deals with NCI-H460. In words: Cytotoxicity against human NCI-H460 cells assessed as reduction in cell viability up to 3 uM measured after 24 hrs by MTT assay. It counts as functional, cell-based.
The subject of assay [15] is HeLa. As to the kind of experiment: Cytotoxicity against human HeLa cells assessed as reduction in cell viability up to 3 uM measured after 24 hrs by MTT assay. Type of assay: functional, cell-based.
Assay [16] deals with LN-229. As to the kind of experiment: Cytotoxicity against human LN229 cells assessed as reduction in cell viability up to 3 uM measured after 24 hrs by MTT assay. Type of assay: functional, cell-based.
In assay [17] the test system is NCI-H460. As to the kind of experiment: Antitumor activity against human NCI-H460 cells xenografted in nude mouse assessed as tumor growth inhibition at 5 mg/kg, ip administered daily. Type of assay: functional, organism-based. Background: In xenograft studies the graft and the host belong to different species.
The subject of assay [18] is Mus musculus. In words: In vivo inhibition of TRAP1 in nude mouse xenografted with human NCI-H460 cells assessed as increase in AMPK phosphorylation at 5 mg/kg, ip administered daily by Western blot analysis. It counts as functional, organism-based.
Assay [19] relates to Mus musculus. In words: In vivo inhibition of TRAP1 in nude mouse xenografted with human NCI-H460 cells assessed as increase in CHOP expression at 5 mg/kg, ip administered daily by Western blot analysis. It counts as functional, organism-based.
Assay [20] has as its system Mus musculus. In words: In vivo inhibition of TRAP1 in nude mouse xenografted with human NCI-H460 cells assessed as increase in SDHB degradation at 5 mg/kg, ip administered daily by Western blot analysis. Type of assay: functional, organism-based.
The subject of assay [21] is Mus musculus. In words: In vivo inhibition of TRAP1 in nude mouse xenografted with human NCI-H460 cells assessed as increase in SIRT3 degradation at 5 mg/kg, ip administered daily by Western blot analysis. Type of assay: functional, organism-based.
The test system of assay [22] is NCI-H460. As to the kind of experiment: Antitumor activity against human NCI-H460 cells xenografted in nude mouse assessed as reduction in tumor cell proliferation at 5 mg/kg, ip administered daily by Ki67 staining based immunohistochemistry analysis. Type of assay: functional, organism-based.
Assay [23] deals with NCI-H460. In words: Antitumor activity against human NCI-H460 cells xenografted in nude mouse assessed as induction of tumor cell death by measuring increase in cleaved caspase-3 expression at 5 mg/kg, ip administered daily by Western blot analysis. It counts as functional, organism-based.
Assay [24] relates to NCI-H460. In words: Antitumor activity against human NCI-H460 cells xenografted in nude mouse assessed as induction of tumor cell death by measuring increase in cleaved caspase-9 expression at 5 mg/kg, ip administered daily by Western blot analysis. It counts as functional, organism-based.

Active and inactive are the calls of the source. The calls are words filed in the database; no cut-off is given here.

For the compound `Nc1ncnc2c1nc(Sc1cc3c(cc1I)OCO3)n2CCC[P+](c1ccccc1)(c1ccccc1)c1ccccc1`, in assay [1], the inhibition result is “Active”.
With `Nc1ncnc2c1nc(Sc1cc3c(cc1I)OCO3)n2CCCCCCCCCCCC[P+](c1ccccc1)(c1ccccc1)c1ccccc1`, the inhibition entry in assay [1] is “Active”.
For the compound `Nc1ncnc2c1nc(Sc1cc3c(cc1I)OCO3)n2CCCCCC[P+](c1ccccc1)(c1ccccc1)c1ccccc1`, the inhibition result in [1], in assay [2], in assay [3], in assay [4], in assay [7] and in assay [8] was “Active” in each case. Further, the Activity was 41.3% in assay [5] and 28.2% in [6]. In addition, the inhibition entry in [9], in assay [10], in assay [11], in assay [12], in assay [18] and in assay [19] was “inactive” throughout. Further, the inhibition entry in assay [20] and in assay [21] was “inactive” throughout. The outcome in assay [13], in [14], in assay [15] and in [16] was Active. Moreover, the TGI entry in assay [17] is “inactive”. Moreover, the result in [22], in [23] and in assay [24] was inactive.
For the compound `CO[C@H]1/C=C\C=C(/C)C(=O)NC2=CC(=O)C(NCCCCCC[P+](c3ccccc3)(c3ccccc3)c3ccccc3)=C(C[C@@H](C)C[C@H](OC)[C@H](O)[C@@H](C)/C=C(\C)[C@@H]1OC(N)=O)C2=O`, the result in assay [13], in assay [14] and in assay [16] was Active.
As for `CC(C)c1cc(-c2n[nH]c(=O)n2-c2ccc3c(ccn3C)c2)c(O)cc1O`, the result in assay [13], in assay [14], in [15] and in assay [16] was Active.
Consider `Nc1ncnc2c1nc(Sc1cc3c(cc1I)OCO3)n2CCCCCCCC[P+](c1ccccc1)(c1ccccc1)c1ccccc1`, for which the inhibition entry in assay [1] is “Active”.
Consider `CC(C)NCCCn1c(Sc2cc3c(cc2I)OCO3)nc2c(N)ncnc21`, for which the inhibition result in [1] and in [2] was “Active” each time. In addition, the Activity in [5] was 26.5%; in assay [6], 28.3%. Moreover, the result in assay [13], in assay [14], in assay [15] and in [16] was Active.

The values above are taken from ChEMBL document CHEMBL4602687, “Dual Binding to Orthosteric and Allosteric Sites Enhances the Anticancer Activity of a TRAP1-Targeting Drug” (J Med Chem, 2020).
